Broadly, the LD50 is the dose expected to kill half of the subjects tested.

The conditions of data set [1]: upon intravascular administration; cellular uptake and kidney clearance; cited from earlier work.
The subject of another data set is mice. Particulars: cited from earlier work.
Data set [2] can be described thus: Solubility in water and plasma, by absorbance versus wavelength (FIG. 20A). It is filed as physicochemical. The note with it: absorbance plots FIG. 20A, HMW-ICL-670 was 20% (by weight) ICL-670. The method, then: FIGS. 20A and 20B are plots of absorbance of radiation in water versus wavelength of the radiation, for low molecular weight ICL670 (3 mg/ml) and the chelation structure of the present invention (denoted as HMW) dissolved in the water, in accordance with embodiments of the present invention. […] The measured absorbance increases with increasing concentration of the chelators/chelation structures dissolved in the water and is thus a measure of the solubility of the chelators/chelation structures in the water.

For `CC(=O)N(O)CCCCCNC(=O)CCC(=O)N(O)CCCCCNC(=O)CCC(=O)N(O)CCCCCN.CS(=O)(=O)O` [DFO, N-[5-(3-[(5-aminopentyl)-hydroxycarbamoyl]-propionamido)pentyl]-3-([5-(N-hydroxyacetamido)-pentyl]-carbamoyl)-propionohydroxamic acid monomethane sulphonate], the “time to complete clearance from the vasculature” value in data set [1] is “approximately 20 minutes”. For the same compound, the LD50 with mice is recorded as approximately 250 mg/kg.

For the compound `O=C(O)c1ccc(-n2nc(-c3ccccc3O)nc2-c2ccccc2O)cc1` [ICL670, 4-[3,5-bis(2-hydroxyphenyl)-1,2,4-triazol-1-yl]-benzoic acid], in data set [2], the solubility in water result was “insoluble in water”.

(Values after patent publication US8454934B2, “High molecular weight chelation structure” (Canadian Blood Services, priority 2006, dated 2013).)
